The target of assay [1] is Carbonic anhydrase 5B, mitochondrial (Homo sapiens, UniProt Q9Y2D0).
For the next assay, the target named is Carbonic anhydrase 2 (Homo sapiens, UniProt P00918).
Assay [2] deals with Carbonic anhydrase 5A, mitochondrial (Homo sapiens, UniProt P35218).
The target of another assay is Carbonic anhydrase 1 (Homo sapiens, UniProt P00915).
Sequence of Carbonic anhydrase 1 (P00915 whole entry): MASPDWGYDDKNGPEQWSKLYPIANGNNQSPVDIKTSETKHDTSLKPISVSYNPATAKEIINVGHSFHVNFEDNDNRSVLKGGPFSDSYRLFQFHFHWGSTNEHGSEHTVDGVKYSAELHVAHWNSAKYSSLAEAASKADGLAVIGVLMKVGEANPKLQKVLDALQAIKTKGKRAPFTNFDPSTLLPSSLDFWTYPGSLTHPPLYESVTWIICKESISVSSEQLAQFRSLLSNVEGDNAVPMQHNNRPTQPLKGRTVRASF

Sequence of Carbonic anhydrase 5B, mitochondrial (Q9Y2D0 whole entry): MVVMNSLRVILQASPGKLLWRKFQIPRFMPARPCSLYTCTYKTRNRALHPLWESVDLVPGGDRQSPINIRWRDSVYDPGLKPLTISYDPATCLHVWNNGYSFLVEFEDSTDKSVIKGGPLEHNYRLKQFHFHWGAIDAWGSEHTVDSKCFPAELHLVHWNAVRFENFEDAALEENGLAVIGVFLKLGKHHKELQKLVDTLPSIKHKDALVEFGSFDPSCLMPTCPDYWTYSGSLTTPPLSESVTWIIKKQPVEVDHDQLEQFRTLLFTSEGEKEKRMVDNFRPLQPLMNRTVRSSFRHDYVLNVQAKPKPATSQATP
Sequence of Carbonic anhydrase 5A, mitochondrial (P35218 whole entry): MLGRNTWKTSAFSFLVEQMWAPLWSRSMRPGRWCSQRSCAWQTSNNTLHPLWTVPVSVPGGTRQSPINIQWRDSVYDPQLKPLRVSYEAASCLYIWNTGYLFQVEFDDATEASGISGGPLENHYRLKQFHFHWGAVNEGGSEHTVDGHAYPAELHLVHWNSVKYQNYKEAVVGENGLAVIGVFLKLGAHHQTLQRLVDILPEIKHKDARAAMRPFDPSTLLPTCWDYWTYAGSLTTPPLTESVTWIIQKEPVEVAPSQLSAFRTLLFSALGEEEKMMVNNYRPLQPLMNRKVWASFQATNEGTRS

With `COc1ccc(-c2cn(-c3ccc(S(N)(=O)=O)cc3)nn2)cc1`, the Ki (as a rule, the dissociation constant of the complex between target and ligand, obtained from inhibition or displacement) in assay [1] worked out at 51.8 nM; on Carbonic anhydrase 2, 8.4 nM; in assay [2], 10.6 nM; at Carbonic anhydrase 1, 2200 nM.

Regarding `NS(=O)(=O)c1ccc(-n2cc(-c3ccccc3)nn2)cc1`, the Ki is 10.6 nM in assay [1], 17.8 nM in assay [2] and 5100 nM at Carbonic anhydrase 1.

With `Cc1ccc(-c2cn(-c3ccc(S(N)(=O)=O)cc3)nn2)cc1`, the results for the Ki (in assay [1]; in assay [2]; on Carbonic anhydrase 1) were 10.6 nM, 12.8 nM and 2100 nM, respectively.

For `NS(=O)(=O)c1ccc(-n2cc(-c3ccc(F)cc3)nn2)cc1`, the Ki in assay [1] was 11.2 nM; on Carbonic anhydrase 2, 40.3 nM; in assay [2] it was 14.2 nM; on Carbonic anhydrase 1, 4600 nM.
